In PMC9681850, “Structural basis of synthetic agonist activation of the nuclear receptor REV-ERB” (Nature Communications, 2022):
“And” between values parts separate entries of the source, which are not always exact repeats. Equal entries are not always repeated. Where two headings read alike, the source gives them in different places.

Assays:
REV-ERBα = test system: REV-ERBα; parameters: method as in ref 21 = [21]; 21. Bourotte, et al. Derivatives of 6-substituted triazolopyridazines as Rev-Erb agonists. (ed. States, U.) (United States, 2012).; settings: enhancement of REV-ERBα/NCoR interaction, biochemical or cell-based assays; cited from earlier work
[1] = molecular target: T1, full length human REV-ERBα (Homo sapiens, UniProt P20393); experiment: cell-based two-hybrid luciferase reporter assay (REV-ERBα-FL/GAL4-DBD + NCoR-Vp16, HEK UAS-luc cells); settings: HEK293 UAS-luc cells
T1 construct: expressed in transfected cells; host or cells: HEK293 cells with stably integrated GAL4-UAS luciferase reporter

C2C12 cells = experiment: relative gene expression of REV-ERB responsive genes by qPCR; format: cell-based, mouse; settings: C2C12, 5uM; single replicates; listed as SR1267
Description: We next determined whether STL1267 can regulate characterized REV-ERB modulated genes in cell lines expressing REV-ERB naturally. Five micromolar doses of both drugs were used in cell-based experiments from this point on. REV-ERB is an established component of the core molecular clock repressing the expression of core clock gene Bmal1[6],[27] as well as others[28],[29]. […] In skeletal muscle, REV-ERB agonism increases the expression of a wide variety of genes important in mitochondrial function.
The human hepatocellular carcinoma cell line, HepG2 cells (ATCC HB-8065), were cultured in 10% FBS 1% L-Glu MEM at 37 °C in a humidified atmosphere of 5% CO2. Prior to RNA extraction cells were treated with either DMSO or REV-ERB agonist for 24 h. The C2C12 proliferating mouse myoblast cells (ATCC, CRL-1772) were cultured in 10% FBS DMEM at 37 °C in a humidified atmosphere of 5% CO2. Prior to RNA extraction cells were treated with either DMSO or REV-ERB agonist for 24 h. Prior to crystal violet cytotoxicity assay, cells were treated with either DMSO or REV-ERB agonist for 48 h.
Mouse tissue was homogenized using a bullet blender. DNA/protein was removed by phase separation using BCP/chloroform. The supernatant (RNA containing fraction) was collected, and RNA was precipitated using isopropanol. The RNA pellets were washed with 75% ethanol and resolubilized in RNAse free water. The purity of the RNA was tested by agarose gel prior to cDNA synthesis. Total RNA was harvested from HepG2 and C2C12 using the RNeasy mini kit according to manufacturer’s instructions (Qiagen).
Isolated RNA was reverse transcribed into cDNA using the qScript^TMcDNA Synthesis kit according to the manufacturer’s instructions (QuantaBio). Quantative PCR (qPCR) was performed on a QuantStudio^TM 6 Flex or QuantStudio^TM 7 Flex (Life Technologies) using SYBR^TM Select Master Mix (Applied BioSystems) with select primers (Table S2). Gene expression was normalized to Ppia for all data sets. Oligonucleotide sequences are provided in Supplementary Table 2.

REV-ERBα LBD [2] = molecular target: T2, REV-ERBα LBD (Homo sapiens, UniProt P20393); experiment: FRET assay of NCoR ID1 CoRNR box recruitment; format: biochemical; parameters: agonist-dependent recruitment of NCoR ID1 CoRNR box to the REV-ERBα-LBD
T2 sequence (P20393 284-614 limits assumed): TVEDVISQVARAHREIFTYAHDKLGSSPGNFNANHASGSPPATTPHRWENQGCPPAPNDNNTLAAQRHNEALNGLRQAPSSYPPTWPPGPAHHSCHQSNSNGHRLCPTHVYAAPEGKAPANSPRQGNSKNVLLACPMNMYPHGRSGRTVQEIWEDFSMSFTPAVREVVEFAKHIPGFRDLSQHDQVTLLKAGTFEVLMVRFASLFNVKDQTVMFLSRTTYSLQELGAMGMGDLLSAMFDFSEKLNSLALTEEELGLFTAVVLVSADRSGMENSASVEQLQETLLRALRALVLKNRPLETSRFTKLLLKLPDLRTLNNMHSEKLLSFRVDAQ
Description: We noted a recent patent that described a series of REV-ERB agonists (6-substituted[1,2,4]triazolo[4,3-b]pyridazines) in assays that detected the ability of small molecules to enhance the interaction of REV-ERBα with NCoR either in biochemical or cell-based assays.
Histidine tagged REV-ERBα/β complexed with heme was added to each well to a final concentration of 4 nM. NCoR ID1 fluorescein (ref#PV4622, Batch# 1797468C) was added to each well to a final concentration of 150 nM, and terbium anti-histidine (ref#PV5895, batch 1730002B) was added to a final concentration of 1 nM. Mixture was incubated at room temperature on an orbital shaker for 1 h at 200 rpm. The lanthascreen assay protocol (Dual PMT, excitation 340 nm, dual emission 495/520, Gain 110/110) was used to read the plate.

CAR = CAR (Homo sapiens, UniProt Q14994); experiment: CAR assay; format: cell-based
[3] = test system: Bmal1 expression in liver; experiment: Bmal1 expression in liver after i.p. administration; format: in vivo, C57Bl/6 J mice; settings: mice, 50 mg/kg i.p., 12 h post administration, single animals
REV-ERBα F488A = molecular target: T3, REV-ERBα F488A (Homo sapiens, UniProt P20393, F488A); experiment: two-hybrid reporter assay with mutant receptor; format: cell-based; settings: F488A vs WT
T3 construct: WT or mutant Gal4DBD- full length REV-ERBα fusion and NCoR1-VP16 fusion protein; expressed in transfected cells; host or cells: HEK293 cells with Gal4UAS luciferase reporter stably integrated
Description: The removal of the bulkier Phe488 sidechain may allow for the ligand binding pocket to wrap around the ligand more tightly, which may explain the higher activity of this mutant REV-ERB.
The NCoR-Vp16 plasmid and REV-ERBα/β-FL GAL4-DBD wild-type or point mutation plasmids were incubated with the transfection agent, Lipofectamine 2000. GFP plasmid was also in the transfection mix to confirm transfection efficiency. HEK cells were plated in 10 cm dishes for western blot analysis, and HEK UAS-luc cells were plated in 96 well plates for luciferase assay analysis. Prior to cellular adherence, transfection mix was added. The cells and transfection mix were incubated at 37 °C in a humidified atmosphere of 5% CO2. The transfection incubation lasted overnight for luciferase assays and 48 h for protein isolation/western blot analysis. For luciferase assays, REV-ERB agonists were added in an 11-point serial dilution the day following overnight transfection. Cells were incubated with the compound for 24 h, prior to luciferin addition and luminescence read out.

REV-ERBα LBD [4] = molecular target: T2, REV-ERBα LBD; experiment: scintillation proximity radioligand binding assay with 3H-STL1267; parameters: made in house; settings: SPA

T1 sequence (P20393 whole entry, the tested form may be a part): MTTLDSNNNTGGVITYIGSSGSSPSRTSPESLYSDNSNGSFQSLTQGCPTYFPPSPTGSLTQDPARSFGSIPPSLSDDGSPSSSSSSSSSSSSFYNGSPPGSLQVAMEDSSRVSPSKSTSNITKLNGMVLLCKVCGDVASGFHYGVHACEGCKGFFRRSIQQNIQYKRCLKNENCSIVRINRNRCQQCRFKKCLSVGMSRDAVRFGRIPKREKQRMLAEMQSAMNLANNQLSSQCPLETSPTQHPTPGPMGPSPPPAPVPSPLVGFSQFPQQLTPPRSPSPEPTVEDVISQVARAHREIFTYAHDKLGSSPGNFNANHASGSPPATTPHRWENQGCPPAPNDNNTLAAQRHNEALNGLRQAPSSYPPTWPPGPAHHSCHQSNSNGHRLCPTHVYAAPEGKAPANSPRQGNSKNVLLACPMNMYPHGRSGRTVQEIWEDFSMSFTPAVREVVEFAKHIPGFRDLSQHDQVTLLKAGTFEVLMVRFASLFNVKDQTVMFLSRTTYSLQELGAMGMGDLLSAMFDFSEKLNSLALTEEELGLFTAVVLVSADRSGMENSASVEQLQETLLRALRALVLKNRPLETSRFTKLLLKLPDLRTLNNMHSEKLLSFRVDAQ
T1 sequence (O75376 whole entry partner, the tested form may be a part): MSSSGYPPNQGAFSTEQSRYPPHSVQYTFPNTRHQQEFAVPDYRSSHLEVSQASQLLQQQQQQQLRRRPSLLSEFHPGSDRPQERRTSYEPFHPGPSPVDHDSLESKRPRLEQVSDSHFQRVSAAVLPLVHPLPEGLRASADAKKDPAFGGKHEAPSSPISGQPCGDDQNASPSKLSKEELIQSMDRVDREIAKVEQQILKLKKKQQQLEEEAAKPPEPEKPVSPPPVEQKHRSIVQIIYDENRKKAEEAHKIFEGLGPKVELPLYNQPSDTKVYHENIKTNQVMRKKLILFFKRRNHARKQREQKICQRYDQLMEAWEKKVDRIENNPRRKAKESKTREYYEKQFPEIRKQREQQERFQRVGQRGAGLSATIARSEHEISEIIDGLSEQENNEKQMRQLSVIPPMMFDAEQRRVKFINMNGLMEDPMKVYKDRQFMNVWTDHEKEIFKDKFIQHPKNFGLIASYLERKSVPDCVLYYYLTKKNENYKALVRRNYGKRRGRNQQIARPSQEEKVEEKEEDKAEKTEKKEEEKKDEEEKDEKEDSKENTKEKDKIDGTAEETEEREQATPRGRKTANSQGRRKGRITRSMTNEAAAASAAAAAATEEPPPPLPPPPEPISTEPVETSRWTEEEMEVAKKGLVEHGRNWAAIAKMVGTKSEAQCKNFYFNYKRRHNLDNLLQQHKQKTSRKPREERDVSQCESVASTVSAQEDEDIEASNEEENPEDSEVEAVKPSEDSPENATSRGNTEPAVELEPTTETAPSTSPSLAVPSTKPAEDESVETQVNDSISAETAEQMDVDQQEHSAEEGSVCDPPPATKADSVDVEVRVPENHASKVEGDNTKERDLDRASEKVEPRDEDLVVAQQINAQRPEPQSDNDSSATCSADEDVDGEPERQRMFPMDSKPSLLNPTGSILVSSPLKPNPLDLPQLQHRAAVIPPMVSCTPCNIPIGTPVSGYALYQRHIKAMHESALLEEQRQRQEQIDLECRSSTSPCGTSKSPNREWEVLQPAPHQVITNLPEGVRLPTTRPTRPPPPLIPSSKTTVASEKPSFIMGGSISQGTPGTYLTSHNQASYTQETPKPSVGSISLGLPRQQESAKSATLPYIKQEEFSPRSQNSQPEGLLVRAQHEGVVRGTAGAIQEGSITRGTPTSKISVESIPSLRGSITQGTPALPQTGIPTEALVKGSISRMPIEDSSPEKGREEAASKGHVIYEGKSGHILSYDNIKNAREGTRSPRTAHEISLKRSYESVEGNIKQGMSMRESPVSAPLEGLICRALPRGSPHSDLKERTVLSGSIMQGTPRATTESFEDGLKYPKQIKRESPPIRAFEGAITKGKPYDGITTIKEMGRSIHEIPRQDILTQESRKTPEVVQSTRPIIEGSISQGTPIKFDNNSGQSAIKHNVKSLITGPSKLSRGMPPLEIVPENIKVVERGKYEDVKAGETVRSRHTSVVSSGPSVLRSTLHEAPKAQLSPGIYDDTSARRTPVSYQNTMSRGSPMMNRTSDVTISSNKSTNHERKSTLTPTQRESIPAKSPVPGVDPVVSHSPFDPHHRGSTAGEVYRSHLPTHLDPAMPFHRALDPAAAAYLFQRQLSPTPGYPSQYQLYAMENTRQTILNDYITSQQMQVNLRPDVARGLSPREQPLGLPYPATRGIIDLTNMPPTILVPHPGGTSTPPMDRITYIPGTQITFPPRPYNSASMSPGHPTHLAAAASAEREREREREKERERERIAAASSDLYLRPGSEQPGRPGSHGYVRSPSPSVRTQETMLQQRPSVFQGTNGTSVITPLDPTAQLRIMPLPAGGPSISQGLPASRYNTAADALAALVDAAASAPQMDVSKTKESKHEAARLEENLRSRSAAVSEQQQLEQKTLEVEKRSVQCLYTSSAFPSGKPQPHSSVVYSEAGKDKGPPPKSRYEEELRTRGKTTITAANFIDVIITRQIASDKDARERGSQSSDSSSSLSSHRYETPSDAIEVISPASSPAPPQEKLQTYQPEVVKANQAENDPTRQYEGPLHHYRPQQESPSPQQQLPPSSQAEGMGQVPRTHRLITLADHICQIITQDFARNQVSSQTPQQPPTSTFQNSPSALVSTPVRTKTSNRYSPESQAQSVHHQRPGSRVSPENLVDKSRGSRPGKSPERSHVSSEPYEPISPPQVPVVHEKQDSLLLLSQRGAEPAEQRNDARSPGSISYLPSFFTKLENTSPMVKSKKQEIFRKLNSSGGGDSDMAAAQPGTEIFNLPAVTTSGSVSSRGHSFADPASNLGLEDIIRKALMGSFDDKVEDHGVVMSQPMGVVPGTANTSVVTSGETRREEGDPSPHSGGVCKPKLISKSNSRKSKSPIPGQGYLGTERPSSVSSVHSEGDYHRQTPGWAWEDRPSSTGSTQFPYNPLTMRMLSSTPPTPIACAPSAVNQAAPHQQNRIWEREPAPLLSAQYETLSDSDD
T3 sequence (P20393 whole entry F488A, the tested form may be a part): as the sequence (P20393 whole entry, the tested form may be a part) above, with F488A counted along it
T3 sequence (O75376 whole entry partner, the tested form may be a part): as the sequence (O75376 whole entry partner, the tested form may be a part) above
CAR, sequence (Q14994 whole entry): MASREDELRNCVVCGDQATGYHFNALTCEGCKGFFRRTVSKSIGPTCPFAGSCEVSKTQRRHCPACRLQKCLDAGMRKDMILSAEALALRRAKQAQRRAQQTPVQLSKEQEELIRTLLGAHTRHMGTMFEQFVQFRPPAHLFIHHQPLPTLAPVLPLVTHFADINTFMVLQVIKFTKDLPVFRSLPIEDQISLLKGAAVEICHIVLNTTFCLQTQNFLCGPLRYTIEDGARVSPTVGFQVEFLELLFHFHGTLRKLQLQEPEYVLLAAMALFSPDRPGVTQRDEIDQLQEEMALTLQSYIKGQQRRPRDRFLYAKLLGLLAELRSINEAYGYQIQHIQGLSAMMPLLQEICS

Clc1nnc2ccc(Oc3ccccc3-c3ccccc3)nn12 [STL1267]
potency (REV-ERBα): 100 to 300 nM | maximal efficacy for recruitment of NCoR-VP16 vs. SR9009 [1]: ~ 8 fold | EC50 ([1]; 24 h, read-out: EC50, recruitment of NCoR-Vp16): 1800 nM | Ppargca1 relative gene expression (C2C12 cells): 8.425 and 7.081 and 5.71 | lcad relative gene expression (C2C12 cells): 25.4657 and 24.2235 and 14.2579 | lkb1 relative gene expression (C2C12 cells): 4.349 and 3.556 and 2.4615 | mt-Nd1 relative gene expression (C2C12 cells): 3.873 and 3.557 and 4.501 | mt-co1 relative gene expression (C2C12 cells): 7.748 and 5.296 and 5.742 | nampt relative gene expression (C2C12 cells): 4.112 and 2.537 and 1.9657 | scad relative gene expression (C2C12 cells): 25.4657 and 24.2235 and 14.2579 | sirt1 relative gene expression (C2C12 cells): 4.33 and 3.474 and 1.956 | vlcad relative gene expression (C2C12 cells): 14.2905 and 16.1127 and 7.599 | efficacy of NCoR ID1 recruitment relative to SR9009 (REV-ERBα LBD [2]): roughly double | potency relative to SR9009 in the FRET assay (REV-ERBα LBD [2]): more than ten times greater | EC50 (REV-ERBα LBD [2]; REV-ERBα-LBD): 130 nM | potency relative to SR9009 in the FRET assay (REV-ERBα LBD [2]; listed as 1267): 14.6 fold | activity at CAR (CAR): did not have activity | Bmal1 expression in liver [3]: effectively suppressed Bmal1 expression and 0.9475 and 0.6115 and 0.4288 and 0.62 and 0.8061 and 0.4099 | effect of mutation on NCoR recruitment activity (REV-ERBα F488A): impressive improvement in potency and efficacy | Ki (REV-ERBα LBD [4]; REV-ERBα LBD, read-out: Ki, displacement of 3H-STL1267): 160 nM | potency relative to SR9009 in the radioligand binding assay (REV-ERBα LBD [4]): 4.3 fold
